Read-outs that look alike come from different tables or passages of the source.
How the values were obtained:
P. falciparum 3D7 = assay: P. falciparum ED50 determination, [3H]-hypoxanthine incorporation, strain 3D7; format: cell-based, Plasmodium falciparum
From the text: (§1) Plasmodium strains. The P. falciparum strains used in this study were 3D7 (Netherlands, sensitive) provided by Dr. Pradipsinh Rathod from the University of Washington and K1 (Thailand, ChQ-R, Pyr-R) obtained from the MR4Unit of the American Type Culture Collection (ATCC, Manassas, Va.).
(§2) P. falciparum culture. Strains of P. falciparum were sustained in vitro based on experimental techniques as described by Trager and Jensen.^26 Cultures were maintained in RPMI-1640 (Sigma, St. Louis, […].) with 2 mM L-glutamine, 25 mM HEPES, 33 mM NaHCO3, 20 μg/ml gentamicin sulfate and 20% (v/v) heat-inactivated human plasma type A+ (R^P-20P). Type A+ erythrocytes were obtained from lab donors, washed three times with RPMI, re-suspended in 50% RPMI, and stored at 4° C. Parasites were grown in 10 mL of a 2% hematocrit/RP-20P (v/v) in 50-mL flasks under a 5% CO2, 5% O2, and 90% N2 atmosphere.
(§3) P. falciparum ED50 determination. One […]L of PFTI dissolved in DMSO was added to each well of a 96-well plate followed by the addition of 200 μL of P. falciparum culture at parasitemia and hematocrit of 0.5%. Plates were flushed with 5% CO2, 5% O2, and 90% N2 then incubated at 37° C. for 48 hr. [8-^3H]-hypoxanthine (0.3 μCi, 20 Ci/mmol, American Radiolabeled Chemicals) in 30 μL RP-20P was added to cultures and incubated for an additional 24 hours. Cells were harvested onto filter mats by a Multiharvester (Skatron, Sunnyvale, Calif.) and the radioactivity incorporated into the parasites was counted on a β-scintillation counter. The background level detected with uninfected erythrocytes was subtracted from the data. The ^3H-incorporation into infected RBCs with 1 μL DMSO vehicle alone represents 100% malaria growth. ED50 values were determined by linear regression analysis of the plots of ^3H-hypoxanthine incorporation versus concentration of compound.

Rat FTase = Rat FTase (Rattus norvegicus, UniProt Q02293+Q04631); assay: Rat farnesyltransferase IC50 determination; format: biochemical; conditions: concentration decreasing transferase activity twofold
P. falciparum K1 = assay: P. falciparum ED50 determination, [3H]-hypoxanthine incorporation, strain K1; format: cell-based, Plasmodium falciparum
From the text: as §1, §2, §3

PfPFT = molecular target: T1, PfPFT (Plasmodium falciparum, UniProt Q8I503+Q8IHP6); assay: PfPFT inhibition, scintillation proximity assay with partially purified PfPFT; format: biochemical; conditions: for inhibition at 0.005 µM: read-out: % Inhibition of PfPFT at 5 nM, inhibitor at 5 nM; for inhibition at 0.05 µM: read-out: % Inhibition of PfPFT at 50 nM, inhibitor at 50 nM; for Selectivity: ratio of rat to Plasmodium PFT activity; for IC50: concentration decreasing transferase activity twofold
T1 sequence (Q8I503 1-521): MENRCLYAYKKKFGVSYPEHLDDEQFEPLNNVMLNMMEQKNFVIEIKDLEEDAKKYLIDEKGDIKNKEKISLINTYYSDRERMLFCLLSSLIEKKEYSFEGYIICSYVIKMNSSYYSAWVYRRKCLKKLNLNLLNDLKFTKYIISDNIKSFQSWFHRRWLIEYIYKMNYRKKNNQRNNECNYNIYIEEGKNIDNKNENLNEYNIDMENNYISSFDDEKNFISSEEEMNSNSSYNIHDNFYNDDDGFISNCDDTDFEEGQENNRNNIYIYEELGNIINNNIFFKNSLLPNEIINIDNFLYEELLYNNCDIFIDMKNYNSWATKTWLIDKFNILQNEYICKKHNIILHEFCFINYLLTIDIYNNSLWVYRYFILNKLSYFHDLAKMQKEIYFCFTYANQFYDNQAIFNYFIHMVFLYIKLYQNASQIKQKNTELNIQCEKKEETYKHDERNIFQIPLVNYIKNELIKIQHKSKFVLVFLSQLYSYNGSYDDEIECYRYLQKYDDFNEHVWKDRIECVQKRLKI
T1 sequence (Q8IHP6 1-923): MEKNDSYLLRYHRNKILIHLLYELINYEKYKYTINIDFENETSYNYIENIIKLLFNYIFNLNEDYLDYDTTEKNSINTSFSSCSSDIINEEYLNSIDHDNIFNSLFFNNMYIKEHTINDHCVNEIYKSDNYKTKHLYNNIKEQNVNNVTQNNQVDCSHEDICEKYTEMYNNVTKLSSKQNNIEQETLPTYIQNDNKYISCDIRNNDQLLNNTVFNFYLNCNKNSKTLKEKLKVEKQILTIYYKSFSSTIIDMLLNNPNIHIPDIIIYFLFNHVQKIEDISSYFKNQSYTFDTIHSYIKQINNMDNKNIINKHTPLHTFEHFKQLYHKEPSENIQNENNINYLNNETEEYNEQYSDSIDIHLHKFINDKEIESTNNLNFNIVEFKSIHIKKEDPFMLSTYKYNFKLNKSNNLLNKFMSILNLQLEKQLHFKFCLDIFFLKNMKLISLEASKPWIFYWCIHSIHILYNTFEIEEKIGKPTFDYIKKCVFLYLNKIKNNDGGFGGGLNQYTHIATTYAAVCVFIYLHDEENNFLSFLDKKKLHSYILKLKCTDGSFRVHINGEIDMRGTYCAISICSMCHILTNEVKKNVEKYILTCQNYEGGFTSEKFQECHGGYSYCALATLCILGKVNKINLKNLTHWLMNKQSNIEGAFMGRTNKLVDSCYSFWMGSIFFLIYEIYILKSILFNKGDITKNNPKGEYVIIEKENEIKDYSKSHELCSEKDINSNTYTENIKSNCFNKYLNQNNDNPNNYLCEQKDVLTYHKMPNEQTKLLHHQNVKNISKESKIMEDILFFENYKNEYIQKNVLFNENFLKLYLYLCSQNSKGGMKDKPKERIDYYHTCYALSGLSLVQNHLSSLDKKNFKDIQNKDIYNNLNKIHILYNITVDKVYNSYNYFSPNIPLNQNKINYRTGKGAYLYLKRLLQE

[1] = Oral availability in mice, inhibitor concentration in plasma; format: in vivo; conditions: mouse, in vivo, po
[2] = Plasmodium falciparum, 3D7, strain 3D7, concentration decreasing hypoxanthine incorporation into parasites twofold, read-out: ED50 3D7
[3] = Plasmodium falciparum, K1, strain K1, concentration decreasing hypoxanthine incorporation into parasites twofold, read-out: ED50 K1
[4] = strain 3D7, concentration decreasing hypoxanthine incorporation into parasites twofold, read-out: ED50 3D7
[5] = strain K1, concentration decreasing hypoxanthine incorporation into parasites twofold, read-out: ED50 K1

| SMILES | EC50 (P. falciparum 3D7; [2]) [nM] | IC50 (Rat FTase) [nM] | EC50 (P. falciparum K1; [3]) [nM] | inhibition at 0.005 µM (PfPFT) [%] | inhibition at 0.05 µM (PfPFT) [%] | Selectivity (PfPFT) | EC50 (P. falciparum 3D7; [4]) [nM] | EC50 (P. falciparum K1; [5]) [nM] | IC50 (PfPFT) [nM] | Tmax [1] [min] | % Inhibition of PfPFT at 5 nM (PfPFT; inhibitor at 5 nM) [%] | % Inhibition of PfPFT at 50 nM (PfPFT; inhibitor at 50 nM) [%] | EC50 (P. falciparum 3D7; Plasmodium falciparum, 3D7, read-out: ED50 3D7) [nM] | EC50 (P. falciparum K1; Plasmodium falciparum, K1, read-out: ED50 K1) [nM] |
| --- | --- | --- | --- | --- | --- | --- | --- | --- | --- | --- | --- | --- | --- | --- |
| Cn1cnc(S(=O)(=O)N(CCN(Cc2cncn2C)c2ccc(C#N)cc2)Cc2ccccn2)c1 [Compound 8aa, 1-Methyl-1H-imidazole-4-sulfonic acid {2-[(4-cyano-phenyl)-(3-methyl-3H-imidazol-4-ylmethyl)-amino]-ethyl}-pyridin-2-ylmethyl-amide amide] | 750 | 43 | 1000 | 64 | 93 |  |  |  |  |  |  |  |  |  |
| Cn1cnc(S(=O)(=O)N(CCN(Cc2cncn2C)c2ccc(C#N)cc2)Cc2ccc(C#N)cc2)c1 [Compound 8ae, 1-Methyl-1H-imidazole-4-sulfonic acid (4-cyano-benzyl)-{2-[(4-cyano-phenyl)-(3-methyl-3H-imidazol-4-ylmethyl)-amino]-ethyl}-amide] | 1600 | 350 | 4100 | 24 | 48 | 3.7 |  |  |  |  |  |  |  |  |
| Cn1cnc(S(=O)(=O)N(CCN(Cc2cncn2C)c2ccc(Br)cc2)Cc2ccccc2)c1 [Compound 8b, 1-Methyl-1H-imidazole-4-sulfonic acid benzyl-{2-[(4-bromo-phenyl)-(3-methyl-3H-imidazol-4-ylmethyl)-amino]-ethyl}-amide] | 675 | 290 | 3200 | 86 | 95 |  |  |  |  |  |  |  |  |  |
| Cc1ccccc1CN(CCN(Cc1cncn1C)c1ccc(-c2ccccc2)cc1)S(=O)(=O)c1cn(C)cn1 [Compound 8c, 1-Methyl-1H-imidazole-4-sulfonic acid {2-[biphenyl-4-yl-(3-methyl-3H-imidazol-4-ylmethyl)-amino]-ethyl}-(2-methyl-benzyl)-amide] | 2500 | > 1000 | 2600 | 49 | 85 |  | 2600 | 2500 | 8 |  |  |  |  |  |
| Cn1cncc1CN(CCN(Cc1ccccc1)S(=O)(=O)c1ccccc1)c1ccc(C#N)cc1 [Compound 8e, N-Benzyl-N-{2-[(4-cyano-phenyl)-(3-methyl-3H-imidazol-4-ylmethyl)-amino]-ethyl}-benzenesulfonamide] | 2500 | 13 | 2250 | 18 | 69 | 1.5 |  |  |  |  |  |  |  |  |
| Cn1cncc1CN(CCN(Cc1ccccc1)S(=O)(=O)c1ccccn1)c1ccc(C#N)cc1 [Compound 8g, Pyridine-2-sulfonic acid benzyl-{2-[(4-cyano-phenyl)-(3-methyl-3H-imidazol-4-ylmethyl)-amino]-ethyl}-amide] | 570 |  | 2300 | 64 | 95 |  |  |  | 2.8 | 30 |  |  |  |  |
| CN(C)c1cccc2c(S(=O)(=O)N(CCN(Cc3cncn3C)c3ccc(C#N)cc3)Cc3ccccc3)cccc12 [Compound 8i, 5-Dimethylamino-naphthalene-1-sulfonic acid benzyl-{2-[(4-cyano-phenyl)-(3-methyl-3H-imidazol-4-ylmethyl)-amino]-ethyl}-amide] | 300 | 180 | 388 | 6 | 29 | 3.3 |  |  |  |  |  |  |  |  |
| Cn1cnc(S(=O)(=O)N(CCN(Cc2cncn2C)c2ccc(C#N)cc2)CC(=O)NC(C)(C)C)c1 [Compound 8o, N-tert-Butyl-2-[{2-[(4-cyano-phenyl)-(3-methyl-3H-imidazol-4-ylmethyl)-amino]-ethyl}-(1-methyl-1H-imidazole-4-sulfonyl)-amino]-acetamide] | 2800 | > 1000 | > 5000 | 4 | 6 |  |  |  | > 1000 |  |  |  |  |  |
| Cn1cnc(S(=O)(=O)N(CCN(Cc2cncn2C)c2ccc(C#N)cc2)CC2CCN(C(=O)OC(C)(C)C)CC2)c1 [Compound 8v, 4-{[{2-[(4-Cyano-phenyl)-(3-methyl-3H-imidazol-4-ylmethyl)-amino]-ethyl}-(1-methyl-1H-imidazole-4-sulfonyl)-amino]-methyl}-piperidine-1-carboxylic acid tert-butyl ester] | 88 |  | 54 | 81 | 96 |  |  |  | 1.2 | ≤ 40 |  |  |  |  |
| Cc1cccc(CN(CCN(Cc2cncn2C)c2ccc(C#N)cc2)S(=O)(=O)c2cn(C)cn2)c1 [Compound 8y, 1-Methyl-1H-imidazole-4-sulfonic acid {2-[(4-cyano-phenyl)-(3-methyl-3H-imidazol-4-ylmethyl)-amino]-ethyl}-(3-methyl-benzyl)-amidem-toluene] |  |  |  |  |  |  | 300 | 1000 |  |  | 61 | 94 |  |  |
| Cc1ccc(CN(CCN(Cc2cncn2C)c2ccc(C#N)cc2)S(=O)(=O)c2cn(C)cn2)cc1 [Compound 8z, 1-Methyl-1H-imidazole-4-sulfonic acid {2-[(4-cyano-phenyl)-(3-methyl-3H-imidazol-4-ylmethyl)-amino]-ethyl}-(4-methyl-benzyl)-amide] |  |  |  | 45 | 54 |  |  |  |  |  |  |  | 2700 | > 5000 |
| Cn1cnc(S(=O)(=O)N(CCN(Cc2cncn2C)c2ccc(Br)cc2)Cc2ccccn2)c1 [Compound 13, 1-Methyl-1H-imidazole-4-sulfonic acid {2-[(4-bromo-phenyl)-(3-methyl-3H-imidazol-4-ylmethyl)-amino]-ethyl}-pyridin-2-ylmethyl-amide] |  | 83 |  |  |  |  |  |  |  |  |  |  |  |  |

Reference: patent US20080312287A1, “Compound and Methods For the Treatment of Cancer and Malaria” (University of Washington, priority 2005, published 2008)
